The values below come from patent publication US20240317722A1, “HETEROARYL-3-PIPERIDINEDIONE COMPOUND AND USE THEREOF” (Medshine Discovery Inc., priority 2021, published 2024).

What all share (type): cell-based
The test system of assay [1] is NCI-H1581. In words: Anti-proliferative effect in NCI-H1581 (CellTiter-Glo). As to conditions: NCI-H1581, 3 days; for IC50: Homo sapiens, 72 h. How it is done:
(§1) This assay studied the inhibitory effect of the compounds on cell proliferation by detecting the effect of the test compounds on the in vitro activity of tumor cells NCI-H1581, DMS114, NCI-H69 and NCI-H526.
(§2) The tumor cell lines were cultured in an incubator at 37° C., 5% CO2 or 0% CO2 according to the above culture conditions. The cells were periodically passaged, and cells in logarithmic growth phase were taken for plating. • 2. Cell plating • (1). Cells were stained with trypan blue and viable cells were counted.
(§3) • (3). 100 μL of cell suspension was added to each well of the culture plate, and culture medium without cells was added to the blank control well. • (4). The plate was incubated overnight in an incubator at 37° C., 5% CO2 or 0% CO2, and 100% relative humidity. • 3. Preparation of compound stock solution
(§4) Preparation of 1000× compound stock solution: Compound was dissolved in DMSO to 10 mM, then a portion was taken out and diluted to 1000 times the highest acting concentration. The diluted stock solution was dispensed for later use. • 4. Preparation of 5× compound working solution and treatment of cells with compounds. The working solutions were prepared freshly at each time for use. • (1). Preparation of 5× compound working solution: 119.4 μL of cell culture medium was added to a 96-well plate with a V-shaped bottom. 96 μL of DMSO-cell culture medium mix solution (with DMSO content of 0.5%) was added to subsequent gradient wells. 0.6 μL of the compound from the 1000× compound stock solution was added to the cell culture medium in the 96-well plate, and mixed to uniform with a pipette. A pipette was used to draw 24 μL of the compound-cell culture medium mixture into subsequent wells, and the mixture was mixed well by a pipette each time. • (2). Dosing: 25 μL of 5× compound working solution was added to the cell culture plate. 25 μL of DMSO-cell culture medium mix solution (with DMSO content of 0.5%) was added to the vehicle control and blank control. • (3). The 96-well cell plate was placed back into the incubator and cultured for 3 days. • 5. CellTiter-Glo luminescence cell viability detection
(§5) The following steps were performed according to the instruction of Promega CellTiter-Glo luminescence cell viability detection kit (Promega-G7573). • (1). The CellTiter-Glo buffer was thawed and allowed to stand to reach room temperature; • (2). CellTiter-Glo substrate was allowed to stand to reach room temperature; • (3). 10 mL of CellTiter-Glo buffer was added to CellTiter-Glo substrate in a bottle to dissolve the substrate to formulate CellTiter-Glo working solution; • (4). […] The culture plates were left at room temperature for 10 minutes to stabilize the luminescence signal; • (9). The luminous signal was detected on the 2104 En Vision plate reader. • 6. […]
In general terms: Cellular ATP, detected with luciferase, serves as a proxy for viable cell number.

The subject of assay [2] is NCI-H526. In words: Anti-proliferative effect in NCI-H526 (CellTiter-Glo). The conditions noted are these: NCI-H526, 3 days; for IC50: Homo sapiens, 72 h. How it is done: as §1, §2, §3, §4, §5
Assay [3] has as its target GSPT1 (Homo sapiens, UniProt P15170+Q96SW2). The experiment in a line: Target protein degradation in HEK293T-LgBiT_GSPT1-nHiBiT cells (HiBiT luminescence). On the set-up: expressed in transfected cells. The conditions noted are these: 16 to 18 hours; for Dmax: read-out: Max. DR (maximum degradation rate). How it is done:
This assay was performed to detect the degradation effect of the test compound on the target protein GSPT1 in HEK293T-LgBiT cells.
• 1. Preparation of compounds • (1). Dissolving the powder of the test compound with DMSO to 10 mM as the storage concentration, and using a pipette to manually draw 9 μL of 10 mM or 3 mM test compound to columns 1 and 13 of a LDV plate; • (2). Using multidrop Combi to add 6 μL of DMSO to columns 2-12 and 14-24; • (3). Using Bravo to dilute the test compound 3 times (3 μL+6 μL) from columns 1 to 11 and 13 to 23; • (4). According to the layout of the plate, using Echo to transfer 25 nL of compound solution (columns 1-24 of the LDV plate) to the assay plate; • (5). Using Echo to transfer 25 nL of 1 mM positive control solution to the assay plate as a 100% degradation control (i.e. LC, HPE), and to transfer 25 nL of DMSO to the assay plate as a 0% control (i.e. HC, ZPE). • 2. Cell plating • (1). Discarding the cell culture medium, and washing the cells once with DPBS; then the cells were trypsinized, counted, and used to prepare a cell suspension of 4×10^5 cells/mL; • (2). Using MultiDrop Combi to add 25 μL/well of cell suspension at medium speed to the assay plate containing the test compound; • (3). Putting the assay plate containing cells back into the incubator and culturing it at 37° C. and 5% CO2 for 16 to 18 hours.
• (1). Using MultiDrop Combi to add 25 μL/well of detection reagent (NanoGlo lysis solution+substrate+LgBit protein) to the assay plate at high speed, and shaking for 10 minutes; • (2). Centrifuging at 2000 rpm×1 min to remove bubbles; • (3). Reading the plate using Envision, US Luminescence detection method.
The following formula was used to calculate the degradation rate (DR) of the test compound: DR (%)=(RLU of vehicle control−RLU of compound)/(RLU of vehicle control−RLU of positive control)*100%, wherein the vehicle control was a blank control. The degradation rates of compounds at different concentrations were calculated in Excel, and then XLFit software was used to obtain inhibition curves and to calculate relevant parameters, including the minimum degradation rate, maximum degradation rate and DC50.
A general note: The HiBiT peptide binds its large partner to form an active luciferase.

GSPT1, sequence (P15170 whole entry): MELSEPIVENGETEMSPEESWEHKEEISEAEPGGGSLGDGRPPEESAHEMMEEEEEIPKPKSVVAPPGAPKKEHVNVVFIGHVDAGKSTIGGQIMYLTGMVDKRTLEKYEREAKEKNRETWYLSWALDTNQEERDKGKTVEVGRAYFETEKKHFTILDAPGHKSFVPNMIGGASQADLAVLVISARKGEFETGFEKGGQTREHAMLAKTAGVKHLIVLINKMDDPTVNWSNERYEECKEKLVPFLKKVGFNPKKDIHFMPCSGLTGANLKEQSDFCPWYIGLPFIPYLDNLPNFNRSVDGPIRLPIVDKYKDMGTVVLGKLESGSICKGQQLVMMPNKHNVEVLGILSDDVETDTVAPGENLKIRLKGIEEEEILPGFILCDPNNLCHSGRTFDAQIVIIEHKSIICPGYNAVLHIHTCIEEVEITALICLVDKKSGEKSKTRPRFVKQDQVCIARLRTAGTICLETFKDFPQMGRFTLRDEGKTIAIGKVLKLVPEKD
GSPT1, sequence (Q96SW2 whole entry): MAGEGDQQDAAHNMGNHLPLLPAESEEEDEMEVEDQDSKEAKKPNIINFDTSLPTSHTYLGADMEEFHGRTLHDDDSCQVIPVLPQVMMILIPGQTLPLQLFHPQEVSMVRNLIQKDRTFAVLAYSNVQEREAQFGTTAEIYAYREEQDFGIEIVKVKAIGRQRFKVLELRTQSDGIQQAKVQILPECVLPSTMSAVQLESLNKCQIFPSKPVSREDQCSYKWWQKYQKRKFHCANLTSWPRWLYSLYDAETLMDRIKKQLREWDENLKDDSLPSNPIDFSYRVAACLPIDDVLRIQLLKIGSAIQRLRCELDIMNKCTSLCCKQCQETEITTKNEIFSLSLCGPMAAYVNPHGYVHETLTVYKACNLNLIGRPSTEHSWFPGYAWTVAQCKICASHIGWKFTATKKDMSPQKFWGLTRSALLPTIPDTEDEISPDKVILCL
GSPT1, sequence (Q16531 whole entry partner): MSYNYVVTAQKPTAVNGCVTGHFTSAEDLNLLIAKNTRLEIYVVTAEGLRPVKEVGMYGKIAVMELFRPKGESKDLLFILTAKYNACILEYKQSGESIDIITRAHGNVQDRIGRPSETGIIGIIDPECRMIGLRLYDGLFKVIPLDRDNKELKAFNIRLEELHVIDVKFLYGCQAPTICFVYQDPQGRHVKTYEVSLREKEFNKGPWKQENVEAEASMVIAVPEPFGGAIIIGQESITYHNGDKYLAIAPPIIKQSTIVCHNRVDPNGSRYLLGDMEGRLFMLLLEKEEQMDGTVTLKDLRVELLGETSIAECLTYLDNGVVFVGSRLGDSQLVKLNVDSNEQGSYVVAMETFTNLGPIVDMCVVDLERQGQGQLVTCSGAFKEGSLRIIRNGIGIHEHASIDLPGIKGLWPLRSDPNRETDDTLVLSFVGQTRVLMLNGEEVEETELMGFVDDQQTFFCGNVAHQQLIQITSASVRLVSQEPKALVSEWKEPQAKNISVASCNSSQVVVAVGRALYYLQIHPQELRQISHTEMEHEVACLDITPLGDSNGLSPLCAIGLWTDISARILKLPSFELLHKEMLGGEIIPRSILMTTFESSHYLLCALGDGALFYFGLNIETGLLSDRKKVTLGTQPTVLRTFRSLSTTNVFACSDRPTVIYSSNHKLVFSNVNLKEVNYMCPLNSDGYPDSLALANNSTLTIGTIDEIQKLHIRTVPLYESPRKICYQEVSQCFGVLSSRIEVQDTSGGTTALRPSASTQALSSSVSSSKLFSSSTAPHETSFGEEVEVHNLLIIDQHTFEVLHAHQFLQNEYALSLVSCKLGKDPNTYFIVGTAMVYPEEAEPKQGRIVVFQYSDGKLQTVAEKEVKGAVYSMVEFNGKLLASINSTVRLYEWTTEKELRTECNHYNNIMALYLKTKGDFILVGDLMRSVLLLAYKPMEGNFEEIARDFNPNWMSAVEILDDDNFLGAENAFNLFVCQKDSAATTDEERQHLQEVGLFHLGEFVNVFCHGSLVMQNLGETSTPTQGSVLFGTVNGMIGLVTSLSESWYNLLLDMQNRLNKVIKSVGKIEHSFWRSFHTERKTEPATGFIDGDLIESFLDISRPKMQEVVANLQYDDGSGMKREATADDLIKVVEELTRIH

For orientation: IC50 means the concentration needed to halve the response being measured. Broadly, the DC50 is the concentration at which degradation of the target reaches its halfway point. Read a low DC50 as a more potent degrader. As to `COCCOc1cc(NC(=O)NCc2ccc3c(C4CCC(=O)NC4=O)coc3c2)cc(Cl)c1C` (stereo not drawn) [WX005], in assay [1], half-maximal inhibition (IC50) required 5.2 nM and the “Max. IR” value is 92.19%. Besides, in assay [2], half-maximal inhibition (IC50) was put at 0.5 nM and the “Max. IR” value is reported as 99.17%. For the same compound, in assay [3], it took 2.51 nM to reach half-maximal degradation (DC50) and the Dmax came out at 100%.
Consider `COCCOc1cc(NC(=O)NCc2ccc3c(C4CCC(=O)NC4=O)noc3c2)cc(Cl)c1C` (stereo not drawn) [WX013], for which, in assay [1], the midpoint of inhibition, the IC50, lay at 1.3 nM and the “Max. IR” value is 88.62%. In addition, in assay [2], half-maximal inhibition (IC50) was put at 0.1 nM and the “Max. IR” value is 99.37%. In assay [3], the DC50 stood at 1.07 nM and the Dmax was 100%.
